Tested on: Melanoderm cultures
Test: Solvable Melanin Assay on Melanoderm cultures (3-D skin model)
Assay type: cell-based
Details: Melanoderm cultures fed every other day for 2 weeks, controls DMSO 1.292, untreated 1.259
Description: This experiment was carried out using Melanoderm cultures. Luminescence was measured using a chromameter to assay the degree of melanization of a 3-D skin model.
Method for Melanoderm Cultures
Melanoderm cultures were obtained from MatTek Corporation, Ashland, Mass. The Melanoderm was maintained according to the manufacturer's instructions. The basal media used for the maintenance of the Melanoderm cultures was DMEM supplemented with unspecified quantities of Epidermal growth factor, Insulin, Hydrocortisone, and proprietary epidermal differentiation compounds, in addition to anti-fungal and antibiotics.
For the long term maintenance of the Melanoderms, the basal media was supplemented with both bFGF and a-MSH, compounds which are stimulators of melanocyte growth and melanogenesis. The cultures were fed every other day for a total of 2 weeks—fresh active preparations, prepared in DMSO or culture media, were also applied to the Melanoderms when feeding was performed. Each treatment condition was done in duplicate and digital photographs were taken of the Melanoderm cultures to assess overall pigmentation. As well, microscopic images of the Melanoderms were done to assess the cell viability of the keratinocytes and melanocytes. For further evidence that the treatments were/not cytotoxic, an LDH assay (Promega, Madison, Wis.) was performed on the supernatants from 24 hour post-treatment cultures.
To prepare tissues for assay:
After treatment, tissues are usually frozen until completion of the experiment. Thaw tissues, a few at a time and place in D-PBS to remove excess phenol red from the culture medium and residual test article. Remove a single tissue from the insert. Blot dry and place in 1.7 ml. microfuge tube. Repeat for all samples. Add 250 ul Solvable™ (Tissue and Gel Solubilizer 0.5 M—Packard BioScience Co. Catalogue No. 6NE9100 (NEF910)). Close the tube and make sure that the tissue is completely submerged. Incubate at 60° C. overnight along with standards. In the morning, vortex the samples. Sometimes thick tissues will require additional time to complete the solution process. To prepare standard: Dissolve Melanin (Sigma cat. M 8631) in Solvable at 1 mg/ml. The solution may be warmed gently for 15 minutes at 37° C. Store solution in dark. To prepare standard curve: Prepare dilutions from the standard containing 0 ug to 250 ug of melanin in a total of 250 ul Solvable. Incubate dilutions along with samples. To read assay: Cool samples and standards. Centrifuge at 13,000 rpm for 5 minutes to pellet. Fill microwell plate (C-96) with 200 ul each of samples and standards. There is some foaming of samples when pipetted. Blow gently across the samples to break bubbles prior to reading the plate. Read plate at […].

How did the “OD = 490 nm (melanin content)” value (25 uM) turn out when `O=c1oc2cc(O)ccc2cc1-c1ccccc1` [7-hydroxy-3-phenylcoumarin] was run?
The value was 1.674.

And the “OD = 490 nm (melanin content)” value (50 uM)?
The value was 1.339.

And the “OD = 490 nm (melanin content)” value (75 uM)?
The value was 0.849.

What about the “OD = 490 nm (melanin content)” value (100 uM) of the same molecule?
The value was 0.293.

Reference: patent US7247294B1, “Skin lightening agents, compositions and methods” (Conopco, Inc., priority 2006, dated 2007)
